Molecular target: T1, human URAT1 (Homo sapiens, UniProt Q96S37)
T1 construct: Human URAT1 full length cDNA was subcloned to expression vector pcDNA3.1; expressed in transfected cells; host or cells: HEK293 cells (pcDNA3.1, geneticin-selected)
T1 sequence (Q96S37 1-553): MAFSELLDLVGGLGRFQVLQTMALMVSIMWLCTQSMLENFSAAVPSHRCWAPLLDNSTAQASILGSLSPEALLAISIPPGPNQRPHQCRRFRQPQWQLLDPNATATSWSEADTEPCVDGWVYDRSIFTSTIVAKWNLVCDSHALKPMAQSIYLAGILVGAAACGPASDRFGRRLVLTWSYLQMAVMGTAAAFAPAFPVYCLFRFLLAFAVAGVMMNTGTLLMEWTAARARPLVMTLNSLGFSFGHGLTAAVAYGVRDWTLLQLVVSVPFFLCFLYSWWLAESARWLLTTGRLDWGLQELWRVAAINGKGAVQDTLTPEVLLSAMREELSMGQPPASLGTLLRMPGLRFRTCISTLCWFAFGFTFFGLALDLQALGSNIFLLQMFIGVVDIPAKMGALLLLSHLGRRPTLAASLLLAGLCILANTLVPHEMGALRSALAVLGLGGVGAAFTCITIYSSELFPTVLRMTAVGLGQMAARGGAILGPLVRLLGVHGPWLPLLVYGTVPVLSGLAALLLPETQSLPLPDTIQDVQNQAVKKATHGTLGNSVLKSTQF
Assay: Uric acid transport inhibitory test using human URAT1-expressing cells
Assay type: cell-based
Conditions: human URAT1-expressing HEK293 cells, 14C-uric acid 50 μM, uptake 5 min, room temperature; read-out: hURAT1 IC50
Text: Experimental Example 1 Uric Acid Transport Inhibitory Test Using Human URAT1-Expressing Cells
Human URAT1 full length cDNA was subcloned to expression vector pcDNA3.1 and human URAT1 gene was transfected into human embryonic kidney derived cell line (HEK293 cells) by liposome method using Lipofectamine2000. Simultaneously, HEK293 cells transfected with expression vector pcDNA3.1 alone (hereinafter mock cells) were also produced. HEK293 cells expressing human URAT1 gene or mock cells were selected with geneticin resistance as an index. The functional expression of human URAT1 gene was confirmed by a method similar to the following method, using ^14C-uric acid transport into the cells as an index.
Human URAT1-expressing HEK293 cells or mock cells were cultured in Dulbecco's modified Eagle's MEM medium (high glucose) containing 10% fetal bovine serum, 0.5 mg/mL geneticin sulfate, 100 units/mL penicillin and 100 μg/mL streptomycin under the conditions of 37° C. and 5% CO2 in an incubator. The cells were plated in a 96 well plate (poly-D-Lysine coated) at 1×10^5 cells/well and the following uric acid transport inhibitory test was performed 24 hr later. This test was performed at room temperature.
After the medium was removed by aspiration from each well, the cells were washed once with Hank's Balanced Salt Solution (HBSS) and preincubated with HBSS (100 μL/well) for 5 min. HBSS was aspirated and an assay buffer (wherein NaCl in the above-mentioned HBSS had been substituted with Na-gluconate) containing various concentrations of the Example compound and a radioactive ligand (14C-uric acid; final concentration 50 μM) was added to each well at 50 μL/well and an uptake reaction was carried out for 5 min. After the reaction, the cells were washed twice with ice-cold HBSS (150 μL/well), and Microscinti™ 20 (PerkinElmer) was added at 50 μL/well. The cells were lysed by stirring and the radioactivity of each well was measured by a liquid scintillation counter (TOP COUNT, Packard).
The uric acid transport rate (%) of the Example compound at each concentration was calculated relative to the radioactivity (difference in radioactivity between human URAT1-expressing HEK293 cells and mock cells without addition of Example compound (DMSO addition)) showing URAT1 specific uric acid transport as 100%, and the concentration (IC50) of the Example compound necessary for inhibiting the uric acid transport rate by 50% was determined. In Table 24-Table 27, “+++” means IC50 value of less than 300 nM, “++” means IC50 value of 300 nM to less than 3000 nM, and “+” means IC50 value of not less than 3000 nM.

`Cc1cc(C)c2c(c1)N(CCC(=O)O)C(=O)C(C)(C)O2` [Example 89, 3-(2,2,6,8-tetramethyl-3-oxo-2,3-dihydrobenzo[1,4]oxazin-4-yl)propionic acid] and `Cc1cc(C)c2c(c1)N(CCC(=O)O)C(=O)CO2` [Example 82, 3-(6,8-dimethyl-3-oxo-2,3-dihydrobenzo[1,4]oxazin-4-yl)propionic acid] cannot be ordered by IC50: ≥ 3 µM for the first, ≥ 3 µM for the second.

`O=C(O)CN1C(=O)COc2ccccc21` [Example 3, (3-oxo-2,3-dihydrobenzo[1,4]oxazin-4-yl)acetic acid] and `O=C(O)CN1C(=O)CSc2ccccc21` [Example 4, (3-oxo-2,3-dihydrobenzo[1,4]thiazin-4-yl)acetic acid] cannot be ordered by IC50: ≥ 3 µM for the first, ≥ 3 µM for the second.

`Cc1cc(C)c2c(c1)N(C(=O)/C=C/C(=O)O)CCO2` [Example 85, (E)-4-(6,8-dimethyl-2,3-dihydrobenzo[1,4]oxazin-4-yl)-4-oxo-2-butenoic acid] and `O=C(O)/C=C\C(=O)N1CCOc2ccccc21` [Example 25, (Z)-4-(2,3-dihydrobenzo[1,4]oxazin-4-yl)-4-oxo-2-butenoic acid] cannot be ordered by IC50: ≥ 3 µM for the first, ≥ 3 µM for the second.

First: Cc1cc(Cl)cc2c1OC(C(C)C)C(=O)N2CCC(=O)O (stereo not drawn) [Example 81, 3-(6-chloro-2-isopropyl-8-methyl-3-oxo-2,3-dihydrobenzo[1,4]oxazin-4-yl)propionic acid]
Second: CC(C)C1Oc2cc(Cl)ccc2N(CCC(=O)O)C1=O (stereo not drawn) [Example 62, 3-(7-chloro-2-isopropyl-3-oxo-2,3-dihydrobenzo[1,4]oxazin-4-yl)propionic acid]
The IC50 of the first is lower: < 0.3 µM for the first, 0.3 to 3 µM for the second.

`Cc1cccc2c1OC(c1ccccc1)C(=O)N2CCC(=O)O` (stereo not drawn) [Example 47, 3-(8-methyl-3-oxo-2-phenyl-2,3-dihydrobenzo[1,4]oxazin-4-yl)propionic acid] and `O=C(O)CCN1C(=O)C(c2ccccc2)Oc2c(Br)cccc21` (stereo not drawn) [Example 66, 3-(8-bromo-3-oxo-2-phenyl-2,3-dihydrobenzo[1,4]oxazin-4-yl)propionic acid] fall in the same range of IC50: 0.3 to 3 µM for the first, 0.3 to 3 µM for the second.

`CC(C)C1Oc2c(cc(C(F)(F)F)cc2C(F)(F)F)N(CCC(=O)O)C1=O` (stereo not drawn) [Example 103, 3-[2-isopropyl-3-oxo-6,8-bis(trifluoromethyl)-2,3-dihydrobenzo[1,4]oxazin-4-yl]propionic acid] and `CC(C)C1Oc2c(cccc2C(C)(C)C)N(CCC(=O)O)C1=O` (stereo not drawn) [Example 46, 3-(8-tert-butyl-2-isopropyl-3-oxo-2,3-dihydrobenzo[1,4]oxazin-4-yl)propionic acid] cannot be ordered by IC50: 0.3 to 3 µM for the first, ≥ 3 µM for the second.

`CC(C)c1cccc2c1OC(C(C)C)CN2C(=O)CCC(=O)O` (stereo not drawn) [Example 21, 4-(2,8-diisopropyl-2,3-dihydrobenzo[1,4]oxazin-4-yl)-4-oxobutyric acid] and `CC(C)c1cccc2c1OC(C(C)C)CN2C(=O)C(=O)O` (stereo not drawn) [Example 29, (2,8-diisopropyl-2,3-dihydrobenzo[1,4]oxazin-4-yl)oxoacetic acid] cannot be ordered by IC50: ≥ 3 µM for the first, ≥ 3 µM for the second.

First: CC(C)C1Oc2c(Cl)cccc2N(CCC(=O)O)C1=O (stereo not drawn) [Example 100, 3-(8-chloro-2-isopropyl-3-oxo-2,3-dihydrobenzo[1,4]oxazin-4-yl)propionic acid]
Second: CC(C)C1Oc2ccccc2N(CCC(=O)O)C1=O (stereo not drawn) [Example 32, 3-(2-isopropyl-3-oxo-2,3-dihydrobenzo[1,4]oxazin-4-yl)propionic acid]
The IC50 of the first is lower: < 0.3 µM for the first, ≥ 3 µM for the second.

`CC1(C)Oc2ccccc2N(CC(=O)O)C1=S` [Example 11, (2,2-dimethyl-3-thioxo-2,3-dihydrobenzo[1,4]oxazin-4-yl)acetic acid] and `CC(C)C1Oc2ccccc2N(CC(=O)O)C1=S` (stereo not drawn) [Example 13, (2-isopropyl-3-thioxo-2,3-dihydrobenzo[1,4]oxazin-4-yl)acetic acid] cannot be ordered by IC50: ≥ 3 µM for the first, ≥ 3 µM for the second.

First: Cc1cc(C)c2c(c1)N(CCC(=O)O)C(=O)C(Cc1ccccc1)O2 (stereo not drawn) [Example 92, 3-(2-benzyl-6,8-dimethyl-3-oxo-2,3-dihydrobenzo[1,4]oxazin-4-yl)propionic acid]
Second: Cc1cc(C)c2c(c1)N(CCC(=O)O)C(=O)C(c1ccccc1)O2 (stereo not drawn) [Example 72, 3-(6,8-dimethyl-3-oxo-2-phenyl-2,3-dihydrobenzo[1,4]oxazin-4-yl)propionic acid]
The IC50 of the first is higher: ≥ 3 µM for the first, < 0.3 µM for the second. The second is the more potent here.

First: CCC1Oc2c(C)cc(C)cc2N(CCC(=O)O)C1=O (stereo not drawn) [Example 87, 3-(2-ethyl-6,8-dimethyl-3-oxo-2,3-dihydrobenzo[1,4]oxazin-4-yl)propionic acid]
Second: CC(C)C1Oc2ccc(C(C)(C)C)cc2N(CCC(=O)O)C1=O (stereo not drawn) [Example 88, 3-(6-tert-butyl-2-isopropyl-3-oxo-2,3-dihydrobenzo[1,4]oxazin-4-yl)propionic acid]
The IC50 of the first is lower: < 0.3 µM for the first, 0.3 to 3 µM for the second. The first is the more potent here.

`O=C(O)CN1C(=S)CSc2ccccc21` [Example 12, (3-thioxo-2,3-dihydrobenzo[1,4]thiazin-4-yl)acetic acid] and `COC(=O)CN1C(=O)CSc2ccccc21` [Example 2, (3-oxo-2,3-dihydrobenzo[1,4]thiazin-4-yl)acetic acid methyl ester] cannot be ordered by IC50: ≥ 3 µM for the first, ≥ 3 µM for the second.

`CC(C)C1CN(C(=O)/C=C/C(=O)O)c2cccc(Br)c2O1` (stereo not drawn) [Example 78, (E)-4-(8-bromo-2-isopropyl-2,3-dihydrobenzo[1,4]oxazin-4-yl)-4-oxo-2-butenoic acid] and `CC(C)C1CN(C(=O)/C=C/C(=O)O)c2cccc(C(C)(C)C)c2O1` (stereo not drawn) [Example 52, (E)-4-(8-tert-butyl-2-isopropyl-2,3-dihydrobenzo[1,4]oxazin-4-yl)-4-oxo-2-butenoic acid] cannot be ordered by IC50: ≥ 3 µM for the first, ≥ 3 µM for the second.

`CC(C)c1cccc2c1OCC(=S)N2CC(=O)O` [Example 15, (8-isopropyl-3-thioxo-2,3-dihydrobenzo[1,4]oxazin-4-yl)acetic acid] and `CC(C)c1cccc2c1OCC(=O)N2CC(=O)O` [Example 10, (8-isopropyl-3-oxo-2,3-dihydrobenzo[1,4]oxazin-4-yl)acetic acid] cannot be ordered by IC50: ≥ 3 µM for the first, ≥ 3 µM for the second.

`O=C(O)CCCC(=O)N1CCOc2ccccc21` [Example 24, 5-(2,3-dihydrobenzo[1,4]oxazin-4-yl)-5-oxovaleric acid] and `CC(C)C1Sc2ccccc2N(CCC(=O)O)C1=O` (stereo not drawn) [Example 22, 3-(2-isopropyl-3-oxo-2,3-dihydrobenzo[1,4]thiazin-4-yl)propionic acid] cannot be ordered by IC50: ≥ 3 µM for the first, 0.3 to 3 µM for the second.

`CC(C)c1cccc2c1O[C@H](C(C)C)C(=S)N2CC(=O)O` [Example 8, ((R)-2,8-diisopropyl-3-thioxo-2,3-dihydrobenzo[1,4]oxazin-4-yl)acetic acid] and `CC(C)c1cccc2c1O[C@@H](C(C)C)C(=S)N2CC(=O)O` [Example 7, ((S)-2,8-diisopropyl-3-thioxo-2,3-dihydrobenzo[1,4]oxazin-4-yl)acetic acid] fall in the same range of IC50: 0.3 to 3 µM for the first, 0.3 to 3 µM for the second.

`O=C(O)/C=C/C(=O)N1CC(c2ccccc2)Oc2ccc(Cl)cc21` (stereo not drawn) [Example 71, (E)-4-(6-chloro-2-phenyl-2,3-dihydrobenzo[1,4]oxazin-4-yl)-4-oxo-2-butenoic acid] and `CC(C)C1Oc2ccc([N+](=O)[O-])cc2N(CCC(=O)O)C1=O` (stereo not drawn) [Example 96, 3-(2-isopropyl-6-nitro-3-oxo-2,3-dihydrobenzo[1,4]oxazin-4-yl)propionic acid] cannot be ordered by IC50: ≥ 3 µM for the first, 0.3 to 3 µM for the second.

`CC(C)c1cccc2c1OC(C(C)C)C(=O)N2CCCC(=O)O` (stereo not drawn) [Example 18, 4-(2,8-diisopropyl-3-oxo-2,3-dihydrobenzo[1,4]oxazin-4-yl)butyric acid] and `CC(C)C1Oc2cc([N+](=O)[O-])ccc2N(CCC(=O)O)C1=O` (stereo not drawn) [Example 95, 3-(2-isopropyl-7-nitro-3-oxo-2,3-dihydrobenzo[1,4]oxazin-4-yl)propionic acid] cannot be ordered by IC50: ≥ 3 µM for the first, ≥ 3 µM for the second.

From US20070197512A1, “Carboxylic Acid Compounds and Use Thereof” (Japan Tobacco Inc., priority 2006, published 2007)
